PubChem BioAssay (NCI)
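A five-concentration, 48-hour dose response in 96-well plates underlies each endpoint, interpolated linearly between surrounding concentrations. GI50: concentration for 50% inhibition of growth. The concentration for full growth arrest is given as TGI.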

How the values were obtained:
Test in all cases: NCI tumour cell line growth inhibition, 48 h
[1] = test system: 786-0 renal
[2] = test system: A498 renal
[3] = test system: A549 NSCLC
[4] = test system: ACHN renal
[5] = test system: BT-549 breast
[6] = test system: CAKI-1 renal
[7] = test system: CCRF-CEM leukemia
[8] = test system: COLO 205 colon
[9] = test system: DU-145 prostate
[10] = test system: EKVX NSCLC
[11] = test system: HCC-2998 colon
[12] = test system: HCT-116 colon
[13] = test system: HCT-15 colon
[14] = test system: HL-60(TB) leukemia
[15] = test system: HOP-62 NSCLC
[16] = test system: HOP-92 NSCLC
[17] = test system: HS 578T breast
[18] = test system: HT29 colon
[19] = test system: IGROV1 ovarian
[20] = test system: K-562 leukemia
[21] = test system: KM12 colon
[22] = test system: LOX IMVI melanoma
[23] = test system: M14 melanoma
[24] = test system: MALME-3M melanoma
[25] = test system: MCF7 breast
[26] = test system: MDA-MB-231 breast
[27] = test system: MDA-MB-435
[28] = test system: MDA-MB-468 breast
[29] = test system: MOLT-4 leukemia
[30] = test system: NCI-H226 lung

Compound: CN(C)c1nc(NCCNS(=O)(=O)c2ccc(C(=O)/C=C/c3ccccc3)cc2)nc(Nc2ccc(F)cc2)n1
- GI50 [1]: 11.2 µM
- TGI [1]: 25.3 µM
- GI50 [2]: 11.6 µM
- TGI [2]: 24 µM
- GI50 [3]: 8.33 µM
- TGI [3]: 26 µM
- GI50 [4]: 4.92 µM
- TGI [4]: 17.3 µM
- GI50 [5]: 13.9 µM
- TGI [5]: 27.5 µM
- GI50 [6]: 4.75 µM
- TGI [6]: 19.7 µM
- GI50 [7]: 6.59 µM
- TGI [7]: > 100 µM
- GI50 [8]: 5.46 µM
- TGI [8]: 20.8 µM
- GI50 [9]: 12.1 µM
- TGI [9]: 25.3 µM
- GI50 [10]: 4.48 µM
- TGI [10]: 14.8 µM
- GI50 [11]: 2.35 µM
- TGI [11]: 5.46 µM
- GI50 [12]: 1.72 µM
- TGI [12]: 3.24 µM
- GI50 [13]: 2.04 µM
- TGI [13]: 3.84 µM
- GI50 [14]: 3.88 µM
- TGI [14]: 29.3 µM
- GI50 [15]: 11.8 µM
- TGI [15]: 26.8 µM
- GI50 [16]: 8.1 µM
- TGI [16]: 23.4 µM
- GI50 [17]: 7.39 µM
- TGI [17]: 57.8 µM
- GI50 [18]: 3.08 µM
- TGI [18]: 10.6 µM
- GI50 [19]: 11.2 µM
- TGI [19]: 23.8 µM
- GI50 [20]: 3.34 µM
- TGI [20]: 18.6 µM
- GI50 [21]: 3.74 µM
- TGI [21]: 14 µM
- GI50 [22]: 2.47 µM
- TGI [22]: 7.14 µM
- GI50 [23]: 5.98 µM
- TGI [23]: 20 µM
- GI50 [24]: 12.7 µM
- TGI [24]: 26.3 µM
- GI50 [25]: 1.99 µM
- TGI [25]: 4.05 µM
- GI50 [26]: 4.84 µM
- TGI [26]: 18.1 µM
- GI50 [27]: 7.44 µM
- TGI [27]: 23 µM
- GI50 [28]: 2.84 µM
- TGI [28]: 12.8 µM
- GI50 [29]: 3.22 µM
- TGI [29]: 29.6 µM
- GI50 [30]: 5.22 µM
